Patent publication EP0024842A1, “Methyl (5-(2-thienylhydroxymethyl)-1H-benzimidazol-2-yl) carbamate, process for its preparation and compositions containing it” (priority 1979, dated 1981)

Assays:
rats = assay: Embryotoxic effect in rats, 'another test' at equimolar doses; format: in vivo, rat
[1] = tested on: pregnant Sprague-Dawley rats; assay: Embryotoxic activity in pregnant rats (antimitotic test according to Delatour and Richard), dose series; conditions: orally; for # Fetus: 8th to 15th day of gestation; for Embryo-toxicity %: daily from the 8th to the 15th day of gestation

Row | Structure (SMILES) | % (embryotoxic effect) (rats; Oral Dose Per Day 5.02 mg/kg) | Foet./ Implant (rats; Oral Dose Per Day 5.02 mg/kg) | # Fetus ([1]; 7.5 mg/kg/day, 40 implantations) | Embryo-toxicity % ([1]; 7.5 mg/kg/day) | # Fetus ([1]; 15 mg/kg/day, 30 implantations) | Embryo-toxicity % ([1]; 15 mg/kg/day) | # Fetus ([1]; 30 mg/kg/day, 28 implantations) | Embryo-toxicity % ([1]; 30 mg/kg/day) | % (embryotoxic effect) (rats; Oral Dose Per Day 5.05 mg/kg) | Embryo-toxicity % ([1]; 3.03 mg/kg/day) | Embryo-toxicity % ([1]; 5.05 mg/kg/day)
1 | COC(=O)Nc1nc2ccc(C(=O)c3cccs3)cc2[nH]1 [II, Methyl 5-[(2-thenoyl)-lH-benzimidazol-2-yl]-carbamate] | 3.5% | 55/57 | 0 | 100% | 0 | 100% | 0 | 100% | – | – | –
2 | COC(=O)Nc1nc2ccc(C(O)c3cccs3)cc2[nH]1 (racemic) [I, methyl [5-(2-thienylhydroxymethyl)-lH-benzimidazol-2-yl]-carbamate] | – | – | – | – | – | – | – | – | 100% | 12.06% | 100%
